# Columns and labels:
# ABUTH = assay: Pre-emergence herbicidal action against ABUTH; type: in vivo, Abutilon theophrasti; settings: Abutilon theophrasti, 504 h; for pest or weed control at 80 g/ha: scored visually after 3 weeks vs untreated controls (100% = plants have died, 0% = like control plants); for pest or weed control at 320 g/ha: Dosage: 320 g/ha, scored visually after 3 weeks; for pest or weed control at 320 g/ha / pest or weed control at 20 g/ha: 100% = plants have died, 0% = like control plants; for pest or weed control at 20 g/ha: dosage 20 g/ha, scored visually after 3 weeks vs untreated controls, read-out: Pre-emergence action against ABUTH (herbicidal activity in percent)
# In short: (§1)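 Seeds sown in sandy loam, soil-covered; compound sprayed on soil surface pre-emergence. Application: WP/EC, 600–800 l/ha, 0.2% wetting agent. Readout: visual % damage at 3 weeks.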
# ALOMY [1] = assay: Pre-emergence herbicidal action against ALOMY; type: in vivo, Alopecurus myosuroides; settings: Alopecurus myosuroides, 504 h, pre-emergence; for pest or weed control at 80 g/ha: scored visually after 3 weeks vs untreated controls (100% = plants have died, 0% = like control plants); for pest or weed control at 320 g/ha: scored visually after 3 weeks, 100% = plants have died, 0% = like control plants
# In short: as §1
# ECHCG [2] = assay: Pre-emergence herbicidal action against ECHCG; type: in vivo, Echinochloa crus-galli; settings: Echinochloa crus-galli, 504 h
# In short: as §1
# HORMU [3] = assay: Pre-emergence herbicidal action against HORMU; type: in vivo, Hordeum murinum; settings: Hordeum murinum, 504 h, pre-emergence
# In short: as §1
# LOLRI [4] = assay: Pre-emergence herbicidal action against LOLRI; type: in vivo, Lolium rigidum; settings: Lolium rigidum, 504 h, 320 g/ha
# In short: as §1
# MATIN [5] = assay: Pre-emergence herbicidal action against MATIN; type: in vivo, Matricaria inodora; settings: Tripleurospermum inodorum, 504 h; for pest or weed control at 20 g/ha: dosage 20 g/ha; for pest or weed control at 80 g/ha: dosage 80 g/ha; for pest or weed control at 320 g/ha: dosage 320 g/ha
# In short: as §1
# POLCO [6] = assay: Pre-emergence herbicidal action against POLCO; type: in vivo, Polygonum convolvulus; settings: Fallopia convolvulus, 504 h; for pest or weed control at 320 g/ha: dosage 320 g/ha
# In short: as §1
# SETVI [7] = assay: Pre-emergence herbicidal action against SETVI; type: in vivo, Setaria viridis; settings: Setaria viridis, 504 h; for pest or weed control at 80 g/ha: dosage 80 g/ha; for pest or weed control at 320 g/ha: dosage 320 g/ha
# In short: as §1
# STEME = assay: Pre-emergence herbicidal action against STEME; type: in vivo, Stellaria media; settings: Stellaria media, 504 h; for pest or weed control at 20 g/ha: dosage 20 g/ha; for pest or weed control at 80 g/ha: dosage 80 g/ha; for pest or weed control at 320 g/ha: dosage 320 g/ha
# In short: as §1
# VERPE [8] = assay: Pre-emergence herbicidal action against VERPE; type: in vivo, Veronica persica; settings: Veronica persica, 504 h, dosage 320 g/ha
# In short: as §1
# VIOTR [9] = assay: Pre-emergence herbicidal action against VIOTR; type: in vivo, Viola tricolor; settings: Viola tricolor, 504 h; for pest or weed control at 80 g/ha: dosage 80 g/ha; for pest or weed control at 320 g/ha: dosage 320 g/ha
# In short: as §1
# ALOMY [10] = assay: Post-emergence herbicidal action against ALOMY; type: in vivo, Alopecurus myosuroides; settings: Alopecurus myosuroides, 504 h, visual assessment about 3 weeks after treatment vs untreated controls; for pest or weed control at 20 g/ha: dosage 20 g/ha; for pest or weed control at 80 g/ha: dosage 80 g/ha
# In short: (§2)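 Percent herbicidal action is rated by eye about 3 weeks after treatment against untreated controls, where 100% means dead plants and 0% means like controls. Plants in sandy loam are sprayed on green parts at the one-leaf stage with aqueous WP or EC preparations at 600 to 800 l/ha plus 0.2% wetting agent.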
# AMARE = assay: Post-emergence herbicidal action against AMARE; type: in vivo, Amaranthus retroflexus; settings: Amaranthus retroflexus, 504 h, visual assessment about 3 weeks after treatment, 100% = plants have died, 0% = like control plants
# In short: as §2
# AVEFA = assay: Post-emergence herbicidal action against AVEFA; type: in vivo, Avena fatua; settings: Avena fatua, 504 h, visual assessment about 3 weeks after treatment, 100% = plants have died, 0% = like control plants
# In short: as §2
# ECHCG [11] = assay: Post-emergence herbicidal action against ECHCG; type: in vivo, Echinochloa crus-galli; settings: Echinochloa crus-galli, 504 h; for pest or weed control at 80 g/ha: dosage 80 g/ha
# In short: as §2
# HORMU [12] = assay: Post-emergence herbicidal action against HORMU; type: in vivo, Hordeum murinum; settings: Hordeum murinum, 504 h; for pest or weed control at 20 g/ha: dosage 20 g/ha; for pest or weed control at 80 g/ha: dosage 80 g/ha
# In short: as §2
# LOLRI [13] = assay: Post-emergence herbicidal action against LOLRI; type: in vivo, Lolium rigidum; settings: Lolium rigidum, 504 h, dosage 80 g/ha
# In short: as §2
# MATIN [14] = assay: Post-emergence herbicidal action against MATIN; type: in vivo, Matricaria inodora; settings: Tripleurospermum inodorum, 504 h; for pest or weed control at 5 g/ha: dosage 5 g/ha; for pest or weed control at 20 g/ha: dosage 20 g/ha; for pest or weed control at 80 g/ha: dosage 80 g/ha
# In short: as §2
# PHBPU = assay: Post-emergence herbicidal action against PHBPU; type: in vivo, Pharbitis purpurea; settings: Ipomoea purpurea, 504 h; for pest or weed control at 20 g/ha: dosage 20 g/ha; for pest or weed control at 80 g/ha: dosage 80 g/ha
# In short: as §2
# POLCO [15] = assay: Post-emergence herbicidal action against POLCO; type: in vivo, Polygonum convolvulus; settings: Fallopia convolvulus, 504 h, dosage 80 g/ha
# In short: as §2
# SETVI [16] = assay: Post-emergence herbicidal action against SETVI; type: in vivo, Setaria viridis; settings: Setaria viridis, 504 h; for pest or weed control at 20 g/ha: dosage 20 g/ha; for pest or weed control at 80 g/ha: dosage 80 g/ha
# In short: as §2
# VERPE [17] = assay: Post-emergence herbicidal action against VERPE; type: in vivo, Veronica persica; settings: Veronica persica, 504 h, 80 g/ha
# In short: as §2
# VIOTR [18] = assay: Post-emergence herbicidal action against VIOTR; type: in vivo, Viola tricolor; settings: Viola tricolor, 504 h
# In short: as §2
smiles,measurement,setting,value
CCCn1nnnc1NC(=O)c1ccc(C(F)(F)F)c(C(=O)NC)c1Cl [Example 3-129],pest or weed control at 80 g/ha,ABUTH,100%
same,pest or weed control at 320 g/ha,ABUTH,100%
same,pest or weed control at 20 g/ha,ABUTH,100%
same,pest or weed control at 80 g/ha,ALOMY [1],80%
same,pest or weed control at 320 g/ha,ALOMY [1],100%
same,pest or weed control at 80 g/ha,ECHCG [2],80%
same,pest or weed control at 320 g/ha,ECHCG [2],100%
same,pest or weed control at 80 g/ha,HORMU [3],90%
same,pest or weed control at 320 g/ha,HORMU [3],100%
same,pest or weed control at 320 g/ha,LOLRI [4],100%
same,pest or weed control at 20 g/ha,MATIN [5],90%
same,pest or weed control at 80 g/ha,MATIN [5],100%
same,pest or weed control at 320 g/ha,MATIN [5],100%
same,pest or weed control at 80 g/ha,POLCO [6]; dosage 80 g/ha,80%
same,pest or weed control at 320 g/ha,POLCO [6],100%
same,pest or weed control at 80 g/ha,SETVI [7],90%
same,pest or weed control at 320 g/ha,SETVI [7],100%
same,pest or weed control at 20 g/ha,STEME,90%
same,pest or weed control at 80 g/ha,STEME,100%
same,pest or weed control at 320 g/ha,STEME,100%
same,pest or weed control at 320 g/ha,VERPE [8],100%
same,pest or weed control at 20 g/ha,VIOTR [9]; dosage 20 g/ha,100%
same,pest or weed control at 80 g/ha,VIOTR [9],100%
same,pest or weed control at 320 g/ha,VIOTR [9],100%
same,pest or weed control at 20 g/ha,ALOMY [10],80%
same,pest or weed control at 80 g/ha,ALOMY [10],100%
same,pest or weed control at 20 g/ha,AMARE,100%
same,pest or weed control at 80 g/ha,AMARE,100%
same,pest or weed control at 20 g/ha,AVEFA,100%
same,pest or weed control at 80 g/ha,AVEFA,100%
same,pest or weed control at 80 g/ha,ECHCG [11],100%
same,pest or weed control at 20 g/ha,HORMU [12],90%
same,pest or weed control at 80 g/ha,HORMU [12],100%
same,pest or weed control at 80 g/ha,LOLRI [13],80%
same,pest or weed control at 5 g/ha,MATIN [14],100%
same,pest or weed control at 20 g/ha,MATIN [14],100%
same,pest or weed control at 80 g/ha,MATIN [14],100%
same,pest or weed control at 20 g/ha,PHBPU,90%
same,pest or weed control at 80 g/ha,PHBPU,100%
same,pest or weed control at 80 g/ha,POLCO [15],90%
same,pest or weed control at 20 g/ha,SETVI [16],100%
same,pest or weed control at 80 g/ha,SETVI [16],100%
same,pest or weed control at 80 g/ha,VERPE [17],80%
same,pest or weed control at 5 g/ha,VIOTR [18]; 5 g/ha,80%
same,pest or weed control at 20 g/ha,VIOTR [18],90%
same,pest or weed control at 80 g/ha,VIOTR [18],100%
CNC(=O)c1c(C(F)(F)F)ccc(C(=O)Nc2nnc(C)o2)c1Cl [Example 6-116],pest or weed control at 80 g/ha,ABUTH,100%
same,pest or weed control at 320 g/ha,ABUTH,100%
same,pest or weed control at 20 g/ha,ABUTH,100%
same,pest or weed control at 80 g/ha,ALOMY [1],100%
same,pest or weed control at 320 g/ha,ALOMY [1],100%
same,pest or weed control at 80 g/ha,ECHCG [2],100%
same,pest or weed control at 320 g/ha,ECHCG [2],100%
same,pest or weed control at 80 g/ha,HORMU [3],90%
same,pest or weed control at 320 g/ha,HORMU [3],100%
same,pest or weed control at 320 g/ha,LOLRI [4],100%
same,pest or weed control at 20 g/ha,MATIN [5],90%
same,pest or weed control at 80 g/ha,MATIN [5],90%
same,pest or weed control at 320 g/ha,MATIN [5],100%
same,pest or weed control at 320 g/ha,POLCO [6],90%
same,pest or weed control at 80 g/ha,SETVI [7],100%
same,pest or weed control at 320 g/ha,SETVI [7],100%
same,pest or weed control at 20 g/ha,STEME,90%
same,pest or weed control at 80 g/ha,STEME,100%
same,pest or weed control at 320 g/ha,STEME,100%
same,pest or weed control at 320 g/ha,VERPE [8],80%
same,pest or weed control at 80 g/ha,VIOTR [9],100%
same,pest or weed control at 320 g/ha,VIOTR [9],100%
same,pest or weed control at 20 g/ha,ALOMY [10],80%
same,pest or weed control at 80 g/ha,ALOMY [10],100%
same,pest or weed control at 20 g/ha,AMARE,100%
same,pest or weed control at 80 g/ha,AMARE,100%
same,pest or weed control at 5 g/ha,AVEFA; 5 g/ha,100%
same,pest or weed control at 20 g/ha,AVEFA,100%
same,pest or weed control at 80 g/ha,AVEFA,100%
same,pest or weed control at 20 g/ha,ECHCG [11]; dosage 20 g/ha,100%
same,pest or weed control at 80 g/ha,ECHCG [11],100%
same,pest or weed control at 20 g/ha,HORMU [12],90%
same,pest or weed control at 80 g/ha,HORMU [12],100%
same,pest or weed control at 80 g/ha,LOLRI [13],90%
same,pest or weed control at 5 g/ha,MATIN [14],80%
same,pest or weed control at 20 g/ha,MATIN [14],90%
same,pest or weed control at 80 g/ha,MATIN [14],100%
same,pest or weed control at 5 g/ha,PHBPU; dosage 5 g/ha,80%
same,pest or weed control at 20 g/ha,PHBPU,80%
same,pest or weed control at 80 g/ha,PHBPU,90%
same,pest or weed control at 80 g/ha,POLCO [15],80%
same,pest or weed control at 5 g/ha,SETVI [16]; dosage 5 g/ha,100%
same,pest or weed control at 20 g/ha,SETVI [16],100%
same,pest or weed control at 80 g/ha,SETVI [16],100%
same,pest or weed control at 80 g/ha,VERPE [17],90%
same,pest or weed control at 20 g/ha,VIOTR [18],80%
same,pest or weed control at 80 g/ha,VIOTR [18],100%

# — patent publication US12655116B2, “Substituted isophthalic acid diamides” (Bayer Aktiengesellschaft, priority 2020, dated 2026)
